What was measured:
mice = experiment: mortality after oral administration; conditions: summary statement
Procedure: (§1) Toxicity studies were based on the measurement of two parameters: mortality and hepatotoxicity.
Mortality was determined by means of the oral administration of 1 g/kg of paracetamol or the test compound (in Suspension K, Bioserve). For this purpose, the number of mice surviving 18 hours after the administration of each compound was counted.

[1] = tested on: pain response in CD-1 mice; experiment: overall analgesic activity (tail flick, hotplate and acetic acid tests); assay type: in vivo, CD-1 mice (Charles-River); conditions: oral
Procedure: (§2) Analgesic activity was measured in CD-1 mice (Charles-River) on the basis of the following three methods:
(§3) The third method consists in measuring the number of writhes performed by a mouse as a manifestation of the pain produced by an intraperitoneal injection of 10 mL/kg of 0.4% acetic acid solution. […] Following oral administration of each compound, the mice (groups of 8 or more) received, 25 minutes later, an intraperitoneal injection of 10 mL/kg of 0.4% acetic acid. The number of writhes was counted 5-15 minutes after the injection of acetic acid.

[2] = solubility remark in hepatotoxicity study; assay type: physicochemical
Procedure: (§4) For the hepatotoxicity study, mice were kept fasted overnight. The following morning, the compounds were administered orally under ether anesthesia. […] Paracetamol was dissolved in 0.5% tragacanth in saline solution. 24 hours after administration of the compounds, blood was withdrawn from the orbital plexus of the mice anesthetized with ether, and placed in heparinized capillary tubes. The samples were centrifuged at 2000 rpm for 10 minutes, and the plasma glutamic-oxaloacetic transaminase (GOT) and glutamicpyruvic transaminase (GPT) levels were determined spectrophotometrically using Sigma kits. The number of animals used in each group is indicated within each column.

[3] = tested on: writhes produced by intraperitoneal acetic acid in CD-1 mice; experiment: acetic acid writhing test; assay type: in vivo, CD-1 mice (Charles-River); conditions: oral; for ED50: Mus musculus, 25 min, 0.4% acetic acid i.p. 25 minutes later
Procedure: as §2, §3

[4] = tested on: plasma GPT and GOT transaminase levels; conditions: mouse, in vivo
Procedure: as §1, §4

[5] = tested on: pain response (hotplate) in CD-1 mice; experiment: hotplate analgesic test; assay type: in vivo, CD-1 mice (Charles-River); conditions: for analgesic activity in hotplate test (words): mice, oral
Procedure: as §2
The second method employed is the hotplate method (Wolfe, G. and MacDonald, A. D., J. Pharmacol. Exp. Ther. 80, 300, 1944). The mouse is placed on a plate at 54° C., and the latency time of withdrawal of a hind foot or a jump is measured. Groups of 10 mice, to which the compounds were administered orally at the doses indicated as abscissae, were subjected to the hotplate test before and at the end of 30 and 60 minutes following administration of the compounds. The mean latency at 30 and 60 minutes minus the baseline latency is plotted as ordinates.

[6] = tested on: pain response (tail flick) in CD-1 mice; experiment: tail flick analgesic test; assay type: in vivo, CD-1 mice (Charles-River); conditions: for analgesic activity in tail flick test: mice, oral
Procedure: as §2
In the tail flick method (D'Amour, F. E., Smith, D. L., J. Pharmacol. Exp. Ther. 72, 74, 1941), the tail of each mouse is exposed to a concentrated light beam; when the animal feels pain, it removes its tail abruptly from said beam, and the latency time of this flick response is measured. The compound indicated by each symbol was administered orally to groups of 10 mice at the doses indicated as abscissae. The analgesia was quantified before and 15, 30, 60 and 120 minutes after the administration of each compound. The peak activity (30 minutes) was plotted as the percentage of mice in which the latency time for flicking the tail was at least doubled.

[7] = tested on: yeast-induced pyretic response in Sprague-Dawley rats; experiment: antipyretic activity (yeast-induced temperature increase); assay type: in vivo; conditions: oral; for antipyretic effect: at the doses studied
Procedure: Antipyretic activity was determined in Sprague-Dawley rats weighing 130-220 g. The animals were injected subcutaneously with a 15% suspension of yeast dissolved in saline solution (1 mL/100 g body weight). Body temperature was measured by means of a rectal thermistor connected to a Cole-Palmer remote thermometer. The temperature at which the experiment was started was the temperature determined 2 hours after the administration of yeasts. Temperature measurements were subsequently made in animals to which paracetamol (standard) or the test compound was administered orally (Suspension K, Bioserve). The results, expressed as the percentage increase in temperature from the baseline value to that obtained 6 hours after the subcutaneous administration of yeast, are given in FIG. 4.

Structure (SMILES)	toxicity compared with paracetamol (mice)	analgesic profile / analgesic activity [1]	analgesic profile / analgesic activity ([1]; listed as Example I)	solubility [2]	ED50 [3]	analgesic activity in acetic acid test [3]	hepatotoxicity [4]	analgesic activity in hotplate test (words) [5]	analgesic activity in tail flick test [6]	antipyretic effect [7]	antipyretic effect ([7]; listed as Example I)	ED50 ([5]; Mus musculus, po, read-out: ED50, hotplate test)	ED50 ([6]; Mus musculus, po, read-out: ED50, tail flick test)	analgesic activity in hotplate test (words) ([5]; listed as paracetamol)	ED50 ([7]; Rattus norvegicus, yeast s.c., read-out: ED50, reduction of pyretic response)
O=C(CN1C(=O)c2ccccc2S1(=O)=O)Nc1ccc(O)cc1 [Example 1, 2-[2,3-Dihydro-3-oxo-1,2-benzisothiazol-2-yl 1,1-dioxide]-N-(4-hydroxyphenyl)acetamide]	much lower toxicity	analgesic profile identical to that of paracetamol	analgesic activity equivalent to that of paracetamol	poor solubility	121 mg/kg	displayed an analgesic effect	lacks hepatotoxicity	did not display activity	did not display activity	did not display antipyretic effects	not possessing antipyretic effects	–	–	–	–
CN1CC[C@]23c4c5ccc(O)c4O[C@H]2[C@@H](O)C=C[C@H]3[C@H]1C5 [Morphine]	–	–	–	–	–	active	–	active	active	–	–	22.3 mg/kg	28.5 mg/kg	–	–
CC(=O)Nc1ccc(O)cc1 [Paracetamol]	–	–	–	–	130 mg/kg	effective	–	minimally active	did not display activity	reduced the pyretic response in a dose-dependent manner	–	–	–	did not display activity	77.7 mg/kg

Source: patent US5554636A, “N-acylated 4-hydroxphenylamine derivatives with analgesic properties and pharmaceutical compositions containing them” (priority 1995, dated 1996)
